The values that follow come from ChEMBL document CHEMBL1150508, “Benzopyran potassium channel activators related to cromakalim - amide replacements at position 4” (1993).

What all share (format): functional, Artery
What all share (details): route oral

For test [1], the system named is Rattus norvegicus. In words: Maximum fall in systolic blood pressure at interval of 1 hour over a period of 1-6 hour after dose of 1.0 mg/kg (p.o.) in spontaneous hypertensive rat (SHR). Details: unit not given here.
Test [2] has as its system Rattus norvegicus. In words: Maximum fall in systolic blood pressure at interval of 1 hour over a period of 1-6 hour after dose of 3.0 mg/kg (p.o.) in spontaneous hypertensive rat (SHR).
In test [3] the test system is Rattus norvegicus. As to the kind of experiment: Maximum fall in systolic blood pressure at interval of 1 hour over a period of 1-6 hour after dose of 0.1 mg/kg (p.o.) in spontaneous hypertensive rat (SHR).
Test [4] relates to Rattus norvegicus. In words: Maximum fall in systolic blood pressure at interval of 1 hour over a period of 1-6 hour after dose of 0.3 mg/kg (p.o.) in spontaneous hypertensive rat (SHR). Details: unit not given here.
Test [5] has as its system Rattus norvegicus. As to the kind of experiment: Maximum fall in systolic blood pressure at interval of 1 hour over a period of 1-6 hour after dose of 10 mg/kg (p.o.) in spontaneous hypertensive rat (SHR).
Test [6] has as its system Rattus norvegicus. As to the kind of experiment: Maximum fall in systolic blood pressure at interval of 1 hour over a period of 1-6 hour after dose 1.0 mg/kg (p.o.) in spontaneous hypertensive rat (SHR).

Consider `C/N=C(/NC(C)=O)NC1c2cc(C#N)ccc2OC(C)(C)C1O` (single isomer, unassigned), for which the “Max fall in blood pressure” value with Rattus norvegicus [1] came out at 17.

For the compound `C/N=C(\NC1c2cc(C#N)ccc2OC(C)(C)[C@H]1O)NS(N)(=O)=O` (stereo not given in full), the “Max fall in blood pressure” value in the test on Rattus norvegicus [2] is on record as 14.

For the compound `C/N=C(/NC#N)NC1c2cnccc2OC(C)(C)[C@H]1O` (stereo not given in full), the “Max fall in blood pressure” value with Rattus norvegicus [1] is listed as 25.

For `CNC(=O)NC1c2cc(C#N)ccc2OC(C)(C)C1O` (single isomer, unassigned), the “Max fall in blood pressure” value in the test on Rattus norvegicus [3] is 14; in the test on Rattus norvegicus [1], 61; in the test with Rattus norvegicus [4], 31.

As to `CC1(C)Oc2ccc(C#N)cc2C(/N=C(/N)NC#N)C1O` (single isomer, unassigned), the “Max fall in blood pressure” value in the test with Rattus norvegicus [1] turned out to be 48; in the test on Rattus norvegicus [4] it was 24.

In the case of `CN/C(=N/C1=CC(C)(C)Oc2ccc(C#N)cc21)NC#N`, the “Max fall in blood pressure” value is listed as 15 in the test with Rattus norvegicus [2] and 17 with Rattus norvegicus [1].

Regarding `CN/C(=C\[N+](=O)[O-])NC1c2cc(C#N)ccc2OC(C)(C)C1O` (single isomer, unassigned), the “Max fall in blood pressure” value with Rattus norvegicus [1] stood at 7; in the test with Rattus norvegicus [5], 12.

Take `CC(C)(C)/N=C(/NC#N)NC1c2cc(C#N)ccc2OC(C)(C)C1O` (single isomer, unassigned): the “Max fall in blood pressure” value in the test on Rattus norvegicus [6] is 8; in the test with Rattus norvegicus [5], 10.

In the case of `C/N=C(/NC#N)NC1c2cc(C#N)ccc2OC(C)(C)C1O` (single isomer, unassigned), the “Max fall in blood pressure” value with Rattus norvegicus [1] amounted to 41; in the test on Rattus norvegicus [4], 16.

As for `C/N=C(/NC(N)=O)NC1c2cc(C#N)ccc2OC(C)(C)C1O` (single isomer, unassigned), in the test with Rattus norvegicus [2], the “Max fall in blood pressure” value worked out at 19.

Regarding `CC1(C)Oc2ccc(C#N)cc2C(N2CCCC2=O)[C@H]1O` (stereo not given in full) [CROMAKALIM], the figures for the “Max fall in blood pressure” value in the test on Rattus norvegicus [3], in the test with Rattus norvegicus [1] and with Rattus norvegicus [4] were 13, 47 and 39, respectively.
